The values that follow come from PMC10786919, “Design-rules for stapled peptides with in vivo activity and their application to Mdm2/X antagonists” (Nature Communications, 2024).

A short description of series [1]: Nanoclick permeability assay. Put shortly: (§1)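 Azido-peptide permeability was read as loss of NanoBRET signal (donor 450 nm, acceptor 610 nm) after adding NanoBret618-azide at 10 μM final.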
The subject of series [2] is cells transiently transfected with the NanoLuc-HaloTag vector. The series can be described thus: Nanoclick permeability assay. The conditions noted are these: 4Hr. In outline:
as §1

For another series, the system named is Ca Ski cell line. In outline: (§2)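 Compound dilution series (10 points, 3-fold, 10 mM top stock in DMSO) tested on overnight-plated Ca Ski cells in RPMI1640/10% FBS and on blasticidin-selected p53RE-bla HCT-116 cells in McCoy's 5A; read-out was CellTiter-Glo 2.0 luminescence after room-temperature equilibration.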
The test system of series [3] is CellSensor p53RE-bla HCT-116 Cell Line. The conditions noted are these: HCT116. Put shortly:
as §2

The subject of series [4] is p53 responsive β-lactamase reporter in HCT116 cells. The series can be described thus: cells. Format: cell-based. Put shortly: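 Read-out used the ToxBLAzer Dual Screen for β-lactamase driven by a stably integrated p53-responsive reporter. Assay: 8000 HCT116 cells per well at 0.5% final DMSO. Reported numbers are geometric means over a minimum of three biological replicates.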

Series [5] has as its system Jump-In T-REx CHO-K1 BLA cells. The experiment in a line: cells. It counts as cell-based.
A short description of series [6]: Circular dichroism (CD) helicity. Format: physicochemical. Put shortly:
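Helicity was estimated by CDNN deconvolution of mean residue ellipticity from 190–300 nm spectra taken at 25 °C (0.2 cm path). Samples were 1 mM peptide in 1 mM HEPES pH 7.4/5% methanol, quantified by 280 nm absorbance; values are means of at least duplicate measurements.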
Background: Circular dichroism is the unequal absorption of left and right circularly polarised light.

Setting [7] is: 0% FBS 4Hr, read-out: TETCHO: Counterscreen EC50.

Where two headings read alike, the source gives them in different places. Positions of bridges follow the written chain, without caps; N, C: chain ends. Non-standard residues stand in square brackets, D forms with d. Residues, ends and D or L forms follow the SMILES beside them. dPhe(4-CF3) = N[C@H](Cc1ccc(C(F)(F)F)cc1)C(=O)O; dTrp(6-F) = N[C@H](Cc1c[nH]c2cc(F)ccc12)C(=O)O; Lys(N3) = [N-]=[N+]=NCCCC[C@H](N)C(=O)O; R8 = C=CCCCCCC[C@@](C)(N)C(=O)O; Cba = N[C@@H](CC1CCC1)C(=O)O; R5 = C=CCCC[C@@](C)(N)C(=O)O; S5 = C=CCCC[C@](C)(N)C(=O)O; βAla = NCCC(=O)O Some results are limits rather than exact numbers.

As for `CC(=O)N[C@@H](CCCCN=[N+]=[N-])C(=O)NCCC(=O)N[C@@H](CC(N)=O)C(=O)N[C@H](C(=O)N[C@@H](Cc1ccccc1)C(=O)N[C@]1(C)CCCCCCC=CCCC[C@@](C)(C(=O)N[C@@H](CC(N)=O)C(=O)N[C@@H](CC(N)=O)C(=O)N[C@@H](CC(N)=O)C(N)=O)NC(=O)[C@H](CC2CCC2)NC(=O)[C@H](CCC(N)=O)NC(=O)[C@H](CC(N)=O)NC(=O)[C@H](Cc2c[nH]c3ccccc23)NC(=O)[C@H](Cc2ccc(O)cc2)NC(=O)[C@H](CC(N)=O)NC1=O)[C@@H](C)O` [MP-359, azide-ATSP-7041 (L1N, E5N, A8N, S12N, A13N, A14N)] (Ac-[Lys(N3)][βAla]NTF[R8]NYWNQ[Cba][S5]NNN-NH2; staple 6-13), in series [1], the cell entry EC50 was determined as 380 nM. Also, the “Nanoclick permeability assay % Effect” value in series [2] was found to be 112.9%. The EC50 was greater than 49.8 µM in the series on Ca Ski cell line (read-out: Cell Proliferation assay EC50, p53 Mut, Ca-Ski); 27.1 µM in series [3] (read-out: Cell Proliferation assay EC50, p53 WT); 32.2 µM in series [4] (0% FBS 4Hr, read-out: p53 reporter assay: EC50); greater than 50.6 µM in series [5] (setting [7]). In addition, the “TETCHO: Counterscreen % Effect” value in series [5] (0% FBS 4Hr) was 8.184%. Further, in series [6], the “CD % Helicity” value amounted to 39.55%.

`CC(=O)N[C@@H](C(=O)N[C@H](C)C(=O)N[C@H](Cc1c[nH]c2cc(F)ccc12)C(=O)N[C@H](Cc1ccc(O)cc1)C(=O)N[C@H](C)C(=O)N[C@]1(C)CCCC=CCCC[C@](C)(C(=O)N[C@H](CC(C)C)C(=O)N[C@H](CO)C(N)=O)NC(=O)[C@@H](CCC(N)=O)NC(=O)[C@@H](CCC(=O)O)NC(=O)[C@@H](Cc2ccc(C(F)(F)F)cc2)NC1=O)[C@H](C)O` [MP-797] (Ac-[dT][dA][dTrp(6-F)][dY][dA][R5][dPhe(4-CF3)][dE][dQ][R5][dL][dS]-NH2; staple 6-10): the cell entry EC50 in series [1] was greater than 10000 nM. The “Nanoclick permeability assay % Effect” value in series [2] was 69.79%. Besides, the EC50 in the series on Ca Ski cell line (read-out: Cell Proliferation assay EC50, Ca-Ski, p53 Mut, Ca-Ski) is 30.4 µM; in the series with Ca Ski cell line (read-out: Proliferation EC50 Ca Ski (Off-target), Ca Ski), 30.4 µM; in series [3] (read-out: Cell Proliferation assay EC50, HCT116, p53 WT), 9.09 µM; in series [3] (read-out: Proliferation EC50 HCT116 (On-target)) it was 9.1 µM; in series [4] (0% FBS 4Hr, read-out: p53 reporter assay EC50), 3.61 µM; in series [4] (10% FBS 16Hr, read-out: p53 reporter assay EC50) it was greater than 50.4 µM. Moreover, the EC50 in series [4] (read-out: Cell EC50 (4 hr, 0% FBS), p53 reporter assay, 4 hr, 0% FBS) was 3.6 µM; in series [4] (read-out: Cell EC50 (16 hr, 10% FBS), p53 reporter assay, 16 hr, 10% FBS), greater than 50 µM; in series [5] (setting [7]) it was greater than 50.4 µM; in series [5] (10% FBS 16Hr, read-out: TETCHO: Counterscreen EC50) it was greater than 50.4 µM; in series [5] (4 hours, 0% serum, read-out: TETCHO Counterscreen EC50), greater than 50 µM. The results for the “p53 reporter assay % Effect” value in series [4] (0% FBS 4Hr) and in series [4] (10% FBS 16Hr) were 74.63% and 8.593%, respectively. Moreover, in series [4] (0% serum, 4-hour assay), the “improvement of cellular activity vs MP-769” value is listed as 3 fold. Also, the “TETCHO: Counterscreen % Effect” value in series [5] (0% FBS 4Hr) is recorded as 17.03%; in series [5] (10% FBS 16Hr), -11.41%. Further, the “CD % Helicity” value in series [6] is 26.6%.
